The target of assay [1] is T1, Membrane-associated tyrosine- and threonine-specific cdc2-inhibitory kinase (Homo sapiens, UniProt Q99640).
T1 sequence (Q99640 whole entry): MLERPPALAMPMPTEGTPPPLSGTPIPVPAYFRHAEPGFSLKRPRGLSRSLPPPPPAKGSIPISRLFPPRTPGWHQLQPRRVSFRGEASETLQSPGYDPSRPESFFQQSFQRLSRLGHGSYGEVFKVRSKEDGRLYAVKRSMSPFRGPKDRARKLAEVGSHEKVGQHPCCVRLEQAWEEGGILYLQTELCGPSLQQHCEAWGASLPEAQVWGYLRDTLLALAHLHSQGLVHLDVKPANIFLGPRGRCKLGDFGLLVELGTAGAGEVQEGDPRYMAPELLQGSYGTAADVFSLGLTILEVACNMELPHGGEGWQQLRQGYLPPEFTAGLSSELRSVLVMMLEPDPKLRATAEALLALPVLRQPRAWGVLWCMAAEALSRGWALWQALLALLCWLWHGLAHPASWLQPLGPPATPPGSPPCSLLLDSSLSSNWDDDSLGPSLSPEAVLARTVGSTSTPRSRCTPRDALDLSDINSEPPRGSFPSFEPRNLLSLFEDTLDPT
Nature of the assay: Inhibition of PKMYT1 (unknown origin) incubated for 1 hr by LanthaScreen Eu kinase binding method.

Assay [2] addresses T1, Membrane-associated tyrosine- and threonine-specific cdc2-inhibitory kinase. In words: Displacement of fluorescently labeled tracer from human PKMYT1 (75 to 362 residues) expressed in Escherichia coli BL21 (DE3) by fluorescence anisotropy based kinase assay. A general note: In fluorescence polarisation assays a small probe gives low polarisation when free and higher when bound to something large.

One may read the IC50 as the concentration that inhibits the measured activity by half. In assay [1], `O=C(O[C@@H]1Cc2c(O)cc(O)cc2O[C@@H]1c1cc(O)c(O)c(O)c1)c1cc(O)c(O)c(O)c1` [EPIGALOCATECHIN GALLATE] gave an IC50 of 137 nM.

Turning to `O=C(O[C@@H]1Cc2c(O)cc(O)cc2O[C@H]1c1cc(O)c(O)c(O)c1)c1cc(O)c(O)c(O)c1` [GALLOCATECHIN GALLATE], the IC50 in assay [1] was 159 nM.

`O=c1c(-c2ccc(O)cc2)coc2cc(O)cc(O)c12` [GENISTEIN]: the IC50 in assay [1] is 78000 nM. As to `COc1ccc(-c2oc3c(CC=C(C)C)c(O)cc(O)c3c(=O)c2O)cc1` [ICARITIN], the IC50 in assay [1] is 51000 nM.

Compound `O=c1cc(-c2ccc(O)c(O)c2)oc2cc(O)cc(O)c12` [LUTEOLIN] displayed a half-inhibitory concentration (IC50) in assay [1] of 1500 nM. In assay [2], `CCN(CC)CCOc1ccc(Nc2ncc3cc(-c4c(Cl)cccc4Cl)c(=O)n(C)c3n2)cc1` [PD-0166285] showed an IC50 of 72 nM.

(Values after ChEMBL document CHEMBL6074645, “Structure-based virtual screening discovers novel PKMYT1 inhibitors” (RSC Med Chem, 2024).)
